Key:
[1] = In vitro release kinetics of sirolimus and cilostazol from coated stents; type: physicochemical
[2] = Porcine drug elution PK study of dual drug eluting coating; type: in vivo; settings: after 8 days of implantation, FIG. 11 stent (sirolimus + cilostazol in one EVA/BMA layer, 100 μg BMA overcoat)
Text: Another critical parameter for the performance of the thrombus resistance of a device coated with cilostazol is the duration of the drug release from the coating. This is of particular significance in the two weeks after device implantation. In the porcine drug elution PK studies of the dual drug eluting coating, both cilostazol and sirolius were slowly released from the coating, resulting in a sustained drug release profile. The purpose of the porcine PK study is to assess the local pharmacokinetics of a drug eluting stent at a given implantation time. Normally three stents are implanted in three different coronary arteries in a pig for a given time point and then retrieved for total drug recovery analysis. The stents are retrieved at predetermined time points; namely, 1, 3 and 8 days. The stents are extracted and the total amount of drug remaining on the stents is determined by analysis utilizing HPLC (high performance liquid chromatography) for total drug amount. The difference between the original amount of drug on the stent and the amount of drug retrieved at a given time represents the amount of drug released in that period. The continuous release of drug into surrounding arterial tissue is what prevents the neointimal growth and restenosis in the coronary artery. A normal plot represents the percentage of total drug released (%, y-axis) vs. time of implantation (day, x-axis). […]

[3] = Cumulative in vivo drug release from reservoir dual drug eluting stent; settings: 30 days; compared to cilostazol
Text: Referring to FIG. 29, there is illustrated the cumulative in vivo drug release percentages for each drug over a thirty day period. Curve 2902 represents the profile for cilostazol while curve 2904 represents the profile for sirolimus. FIG. 30 is a graphical representation of the amount of each drug, in micrograms, released in vivo. Curve 3002 represents the profile for cilostazol while curve 3004 represents the profile for sirolimus. The curves in the figures illustrate that both the drugs elute independently of each other with minimal or substantially no interaction. […] Since the amount of drug (by weight) is different for the drugs in their respective reservoirs, the total amount of drug released at thirty (30) days was higher for sirolimus as compared to cilostazol.

Compound	in vitro drug release rate ([1]; 200 μg BMA diffusion overcoat (FIG. 4) versus 100 μg (FIG. 6))	in vitro release ([1]; FIG. 11 stent (sirolimus + cilostazol in one EVA/BMA layer, 100 μg BMA overcoat), FIG. 10)	drug remained in the drug coating [2]	total amount of drug released (by weight) [3]
O=C1CCc2cc(OCCCCc3nnnn3C3CCCCC3)ccc2N1 [cilostazol, 6[4-(1-cyclohexyl-1H-tetrazol-5-yl)-butoxy]-3,4-dihydro-2-(1H)-quinolinone]	comparatively slower	~35%	~80%	–
CO[C@H]1C[C@@H]2CC[C@@H](C)[C@@](O)(O2)C(=O)C(=O)N2CCCC[C@H]2C(=O)O[C@H]([C@H](C)C[C@@H]2CC[C@@H](O)[C@H](OC)C2)CC(=O)[C@H](C)/C=C(\C)[C@@H](O)[C@@H](OC)C(=O)[C@H](C)C[C@H](C)/C=C/C=C/C=C/1C [rapamycin]	–	–	~80%	higher
